Assay results as given in US20120270237A9, “METHODS FOR THE IDENTIFICATION OF KINASE INTERACTING MOLECULES AND FOR THE PURIFICATION OF KINASE PROTEINS” (Cellzone AG, priority 2009, published 2012).

How the values were obtained:
Test in all cases: Kinobeads competition binding, HL60 cell lysate
Parameters in all cases: endogenous in cells
Conditions in all cases: 10 μM free compound
CaMKK2 = CaMKK2 (Homo sapiens, UniProt Q96RR4)
Method: (§1) To one aliquot of cell lysate 10 μM of the free compound (FIG. 3, CZC31326) was added and allowed to bind to proteins in the lysate. Then the affinity matrix with the immobilized compound (Example 1) was added to capture proteins that were not interacting with the previously added free compound. Beads were separated from the lysate and bead bound proteins were eluted in SDS sample buffer and subsequently separated by SDS-Polyacrylamide gel electrophoresis (FIG. 4). Suitable gel bands were cut out and subjected to in-gel proteolytic digestion with trypsin. The second lysate aliquot was processed identically, however no free compound was added (DMSO solvent control). Peptides originating from samples 1 and 2 were labeled with iTRAQ reagents (iTRAQ 114 and iTRAQ 117) and the combined samples were analyzed with a nano-flow liquid chromatography system coupled online to a tandem mass spectrometer (LC-MS/MS) experiment followed by iTRAQ reporter ion quantification in the MS/MS spectra (Ross et al., 2004. Mol. Cell. Proteomics 3(12):1154-1169). Further experimental protocols can be found in WO2006/134056 and a previous publication (Bantscheff et al., 2007. Nature Biotechnology 25, 1035-1044). Sepharose-beads with the immobilized compound (100 μl beads per pull-down experiment) were equilibrated in lysis buffer and incubated with a cell lysate sample containing 50 mg of protein on an end-over-end shaker (Roto Shake Genie, Scientific Industries Inc.) for 2 hours at 4° C. Beads were collected, transferred to Mobicol-columns (MoBiTech 10055) and washed with 10 ml lysis buffer containing 0.4% NP40 detergent, followed by 5 ml lysis buffer containing 0.2% detergent. To elute bound proteins, 60 μl 2×SDS sample buffer was added to the column. The column was incubated for 30 minutes at 50° C. and the eluate was transferred to a siliconized microfuge tube by centrifugation. Proteins were then alkylated with 108 mM iodoacetamid. Proteins were then separated by SDS-Polyacrylamide electrophoresis (SDS-PAGE). The peptide extracts of samples treated with 10 μM of free compound (CZC31326) and the solvent control (0.5% DMSO) were treated with different variants of the isobaric tagging reagent (iTRAQ Reagents Multiplex Kit, part number 4352135, Applied Biosystems, Foster City, Calif., USA). The iTRAQ reagents are a set of multiplexed, amine-specific, stable isotope reagents that can label peptides on amino groups in up to four different biological samples enabling simultaneous identification and quantitation of peptides. The iTRAQ reagents were used according to instructions provided by the manufacturer. The samples were resuspended in 10 μl 50 mM TEAB solution, pH 8.5 and 10 μl ethanol were added. The iTRAQ reagent was dissolved in 120 μl ethanol and 10 μl of reagent solution were added to the sample. The labeling reaction was performed at room temperature for one hour on a horizontal shaker and stopped by adding 5 μl of 100 mM TEAB and 100 mM glycine in water. The two labeled sampled were then combined, dried in a vacuum centrifuge and resuspended in 10 μl of 0.1% formic acid in water. Relative protein quantitation was performed using peak areas of iTRAQ reporter ion signals essentially as described in an earlier publication (Bantscheff et al., 2007. Nature Biotechnology 25, 1035-1044).

AAK1 = AAK1 (Homo sapiens, UniProt Q2M2I8)
Method: as §1

Erk2 = Erk2 (Homo sapiens, UniProt P28482)
Method: as §1

MAP3K4 = MAP3K4 (Homo sapiens, UniProt Q9Y6R4)
Method: as §1

SLK = SLK (Homo sapiens, UniProt Q9H2G2)
Method: as §1

IRE1 = IRE1 (Homo sapiens, UniProt O75460)
Method: as §1

MLK4 = MLK4 (Homo sapiens, UniProt Q5TCX8)
Method: as §1

AurB = AurB (Homo sapiens, UniProt Q96GD4)
Method: as §1

NEK9 = target: T1, NEK9 (Homo sapiens, UniProt Q8TD19)
T1 sequence (Q8TD19 1-979): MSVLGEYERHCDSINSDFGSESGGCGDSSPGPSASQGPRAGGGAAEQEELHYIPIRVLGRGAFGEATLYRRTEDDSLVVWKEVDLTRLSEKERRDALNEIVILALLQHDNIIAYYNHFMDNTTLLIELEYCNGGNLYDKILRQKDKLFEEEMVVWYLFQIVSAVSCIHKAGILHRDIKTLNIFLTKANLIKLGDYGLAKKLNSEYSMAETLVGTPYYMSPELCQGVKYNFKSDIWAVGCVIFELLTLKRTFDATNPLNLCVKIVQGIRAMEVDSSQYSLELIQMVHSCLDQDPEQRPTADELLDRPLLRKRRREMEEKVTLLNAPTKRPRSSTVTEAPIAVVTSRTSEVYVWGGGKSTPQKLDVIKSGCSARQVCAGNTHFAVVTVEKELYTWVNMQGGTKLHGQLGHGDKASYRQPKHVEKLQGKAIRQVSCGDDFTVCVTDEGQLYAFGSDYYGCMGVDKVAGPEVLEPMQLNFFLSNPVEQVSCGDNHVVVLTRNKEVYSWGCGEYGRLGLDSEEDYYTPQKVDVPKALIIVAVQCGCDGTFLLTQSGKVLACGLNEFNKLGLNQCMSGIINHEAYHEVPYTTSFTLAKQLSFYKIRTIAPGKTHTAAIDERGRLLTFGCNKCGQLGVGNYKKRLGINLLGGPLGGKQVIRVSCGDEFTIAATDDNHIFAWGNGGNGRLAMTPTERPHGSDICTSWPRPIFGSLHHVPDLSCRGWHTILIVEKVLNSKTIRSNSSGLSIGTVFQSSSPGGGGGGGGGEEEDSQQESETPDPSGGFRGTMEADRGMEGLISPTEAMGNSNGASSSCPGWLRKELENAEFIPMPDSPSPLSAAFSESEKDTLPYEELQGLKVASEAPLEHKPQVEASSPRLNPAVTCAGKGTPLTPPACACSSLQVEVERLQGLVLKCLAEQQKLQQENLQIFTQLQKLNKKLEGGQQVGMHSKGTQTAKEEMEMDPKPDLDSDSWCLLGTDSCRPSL
Method: as §1

PLK4 = PLK4 (Homo sapiens, UniProt O00444)
Method: as §1

Sequence of CaMKK2 (Q96RR4 whole entry): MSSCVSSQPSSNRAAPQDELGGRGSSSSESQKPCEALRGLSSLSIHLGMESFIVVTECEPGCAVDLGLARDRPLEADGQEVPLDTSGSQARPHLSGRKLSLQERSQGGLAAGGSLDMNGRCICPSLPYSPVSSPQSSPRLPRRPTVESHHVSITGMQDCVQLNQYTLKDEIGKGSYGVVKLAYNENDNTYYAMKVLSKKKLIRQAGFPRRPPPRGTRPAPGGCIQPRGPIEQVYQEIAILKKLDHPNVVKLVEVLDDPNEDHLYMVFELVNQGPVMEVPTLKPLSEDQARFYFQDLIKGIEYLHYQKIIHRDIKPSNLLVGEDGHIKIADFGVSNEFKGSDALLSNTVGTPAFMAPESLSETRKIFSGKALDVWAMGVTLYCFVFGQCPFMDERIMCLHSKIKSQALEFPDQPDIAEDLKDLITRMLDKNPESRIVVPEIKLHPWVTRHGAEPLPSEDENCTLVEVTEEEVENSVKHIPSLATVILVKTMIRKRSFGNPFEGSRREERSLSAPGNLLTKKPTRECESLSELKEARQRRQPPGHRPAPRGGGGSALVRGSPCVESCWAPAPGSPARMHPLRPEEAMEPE
Sequence of IRE1 (O75460 19-977): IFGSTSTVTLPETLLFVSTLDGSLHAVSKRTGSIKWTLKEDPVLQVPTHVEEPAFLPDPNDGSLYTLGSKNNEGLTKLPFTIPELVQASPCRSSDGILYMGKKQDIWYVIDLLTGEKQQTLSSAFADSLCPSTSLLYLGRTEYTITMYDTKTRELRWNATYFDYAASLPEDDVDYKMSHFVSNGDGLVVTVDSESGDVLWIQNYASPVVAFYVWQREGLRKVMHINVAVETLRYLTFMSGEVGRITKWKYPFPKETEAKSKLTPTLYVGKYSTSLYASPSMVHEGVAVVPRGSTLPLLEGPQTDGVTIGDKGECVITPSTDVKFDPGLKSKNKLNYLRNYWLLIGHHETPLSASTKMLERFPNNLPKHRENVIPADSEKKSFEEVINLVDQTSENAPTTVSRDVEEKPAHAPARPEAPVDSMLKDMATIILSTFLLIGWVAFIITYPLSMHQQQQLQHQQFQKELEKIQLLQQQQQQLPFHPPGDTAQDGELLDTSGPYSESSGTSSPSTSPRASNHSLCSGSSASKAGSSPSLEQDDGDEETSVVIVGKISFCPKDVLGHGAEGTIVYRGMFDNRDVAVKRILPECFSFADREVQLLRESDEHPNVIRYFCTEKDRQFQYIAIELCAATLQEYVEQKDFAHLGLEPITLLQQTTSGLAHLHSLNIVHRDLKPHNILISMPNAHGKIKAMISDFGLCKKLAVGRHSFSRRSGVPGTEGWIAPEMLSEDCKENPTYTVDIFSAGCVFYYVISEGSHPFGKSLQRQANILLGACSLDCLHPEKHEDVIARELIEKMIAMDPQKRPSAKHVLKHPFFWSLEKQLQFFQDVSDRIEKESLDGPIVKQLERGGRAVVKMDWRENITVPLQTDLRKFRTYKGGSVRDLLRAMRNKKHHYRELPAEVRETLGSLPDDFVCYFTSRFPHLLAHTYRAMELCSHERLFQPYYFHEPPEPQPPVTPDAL
Sequence of AurB (Q96GD4 whole entry): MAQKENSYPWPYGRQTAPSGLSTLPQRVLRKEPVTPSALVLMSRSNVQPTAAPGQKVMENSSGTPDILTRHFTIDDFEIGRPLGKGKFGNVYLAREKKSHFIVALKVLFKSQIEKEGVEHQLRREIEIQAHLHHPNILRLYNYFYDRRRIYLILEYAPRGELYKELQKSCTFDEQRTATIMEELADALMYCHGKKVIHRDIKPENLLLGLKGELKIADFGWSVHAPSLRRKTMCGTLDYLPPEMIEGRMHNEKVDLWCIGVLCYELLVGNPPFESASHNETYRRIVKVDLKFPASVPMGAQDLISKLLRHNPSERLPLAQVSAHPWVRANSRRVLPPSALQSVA
Sequence of SLK (Q9H2G2 whole entry): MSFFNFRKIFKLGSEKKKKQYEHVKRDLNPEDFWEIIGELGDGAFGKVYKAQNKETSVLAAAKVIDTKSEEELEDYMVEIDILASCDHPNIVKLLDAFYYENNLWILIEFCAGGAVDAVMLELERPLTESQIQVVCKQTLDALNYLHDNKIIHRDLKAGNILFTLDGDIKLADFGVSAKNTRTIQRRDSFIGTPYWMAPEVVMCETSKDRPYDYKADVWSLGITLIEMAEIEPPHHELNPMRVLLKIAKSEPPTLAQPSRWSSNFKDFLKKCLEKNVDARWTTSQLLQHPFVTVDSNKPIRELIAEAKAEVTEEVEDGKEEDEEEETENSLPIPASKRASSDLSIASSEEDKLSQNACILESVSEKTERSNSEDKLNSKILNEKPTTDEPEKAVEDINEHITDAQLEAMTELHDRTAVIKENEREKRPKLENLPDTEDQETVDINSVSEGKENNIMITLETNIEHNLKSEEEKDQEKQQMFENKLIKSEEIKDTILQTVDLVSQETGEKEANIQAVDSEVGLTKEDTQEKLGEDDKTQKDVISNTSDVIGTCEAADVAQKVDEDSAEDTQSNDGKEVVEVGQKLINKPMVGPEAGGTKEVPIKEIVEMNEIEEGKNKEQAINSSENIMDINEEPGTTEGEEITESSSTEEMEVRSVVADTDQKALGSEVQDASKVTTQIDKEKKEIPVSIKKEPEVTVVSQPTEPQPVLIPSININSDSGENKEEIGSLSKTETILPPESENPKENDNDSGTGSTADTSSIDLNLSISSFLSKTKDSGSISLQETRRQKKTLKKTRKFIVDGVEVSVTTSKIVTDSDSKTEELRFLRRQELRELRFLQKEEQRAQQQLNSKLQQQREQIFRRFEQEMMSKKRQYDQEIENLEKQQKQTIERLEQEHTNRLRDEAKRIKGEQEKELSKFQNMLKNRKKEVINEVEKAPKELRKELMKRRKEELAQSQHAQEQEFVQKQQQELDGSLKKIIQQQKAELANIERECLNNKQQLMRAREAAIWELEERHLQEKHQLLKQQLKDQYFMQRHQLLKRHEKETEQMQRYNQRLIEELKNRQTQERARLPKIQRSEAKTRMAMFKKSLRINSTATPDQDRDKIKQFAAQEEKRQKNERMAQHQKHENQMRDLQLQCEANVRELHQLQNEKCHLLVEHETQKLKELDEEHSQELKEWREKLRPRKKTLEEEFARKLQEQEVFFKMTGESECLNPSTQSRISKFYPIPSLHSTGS
Sequence of MAP3K4 (Q9Y6R4 whole entry): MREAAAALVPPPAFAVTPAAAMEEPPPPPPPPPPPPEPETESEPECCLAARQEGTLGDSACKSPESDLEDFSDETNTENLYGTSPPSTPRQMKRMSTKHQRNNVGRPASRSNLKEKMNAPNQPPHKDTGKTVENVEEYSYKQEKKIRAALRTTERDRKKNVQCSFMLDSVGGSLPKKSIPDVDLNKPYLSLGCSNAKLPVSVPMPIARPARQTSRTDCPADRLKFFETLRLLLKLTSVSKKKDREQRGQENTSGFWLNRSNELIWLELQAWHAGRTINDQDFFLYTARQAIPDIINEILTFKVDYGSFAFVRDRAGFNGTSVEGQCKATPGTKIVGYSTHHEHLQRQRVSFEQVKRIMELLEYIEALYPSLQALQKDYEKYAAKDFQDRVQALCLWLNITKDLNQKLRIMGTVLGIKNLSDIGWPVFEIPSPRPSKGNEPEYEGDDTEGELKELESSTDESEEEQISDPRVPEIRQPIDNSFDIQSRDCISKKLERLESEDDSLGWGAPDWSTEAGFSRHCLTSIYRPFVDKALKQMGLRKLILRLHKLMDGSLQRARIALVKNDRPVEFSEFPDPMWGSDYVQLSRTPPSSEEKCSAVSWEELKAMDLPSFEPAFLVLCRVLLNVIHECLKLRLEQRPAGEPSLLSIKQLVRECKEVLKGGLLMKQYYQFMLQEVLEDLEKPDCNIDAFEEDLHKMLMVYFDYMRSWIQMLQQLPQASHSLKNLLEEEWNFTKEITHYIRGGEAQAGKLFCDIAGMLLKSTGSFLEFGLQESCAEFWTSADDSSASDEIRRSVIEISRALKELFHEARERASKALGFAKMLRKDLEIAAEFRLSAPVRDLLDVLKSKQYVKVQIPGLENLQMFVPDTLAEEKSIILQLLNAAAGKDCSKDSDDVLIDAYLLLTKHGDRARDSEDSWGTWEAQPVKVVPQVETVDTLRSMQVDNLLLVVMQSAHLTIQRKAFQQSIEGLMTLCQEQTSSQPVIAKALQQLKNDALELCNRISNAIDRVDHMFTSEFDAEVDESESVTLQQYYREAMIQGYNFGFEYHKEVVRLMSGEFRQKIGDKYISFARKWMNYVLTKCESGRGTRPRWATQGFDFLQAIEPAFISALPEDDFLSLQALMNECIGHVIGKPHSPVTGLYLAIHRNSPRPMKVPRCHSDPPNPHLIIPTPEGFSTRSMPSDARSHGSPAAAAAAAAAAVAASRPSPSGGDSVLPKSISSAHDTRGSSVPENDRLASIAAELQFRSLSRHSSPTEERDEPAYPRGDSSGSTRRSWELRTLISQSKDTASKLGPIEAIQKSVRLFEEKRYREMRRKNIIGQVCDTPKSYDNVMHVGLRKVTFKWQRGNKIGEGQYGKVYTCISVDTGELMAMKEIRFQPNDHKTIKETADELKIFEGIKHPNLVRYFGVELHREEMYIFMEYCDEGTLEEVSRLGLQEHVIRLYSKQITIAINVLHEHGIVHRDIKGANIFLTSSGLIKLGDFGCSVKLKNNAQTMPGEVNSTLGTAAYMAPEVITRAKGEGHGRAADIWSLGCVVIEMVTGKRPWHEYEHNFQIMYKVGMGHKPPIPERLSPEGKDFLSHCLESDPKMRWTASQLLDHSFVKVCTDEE
Sequence of Erk2 (P28482 whole entry): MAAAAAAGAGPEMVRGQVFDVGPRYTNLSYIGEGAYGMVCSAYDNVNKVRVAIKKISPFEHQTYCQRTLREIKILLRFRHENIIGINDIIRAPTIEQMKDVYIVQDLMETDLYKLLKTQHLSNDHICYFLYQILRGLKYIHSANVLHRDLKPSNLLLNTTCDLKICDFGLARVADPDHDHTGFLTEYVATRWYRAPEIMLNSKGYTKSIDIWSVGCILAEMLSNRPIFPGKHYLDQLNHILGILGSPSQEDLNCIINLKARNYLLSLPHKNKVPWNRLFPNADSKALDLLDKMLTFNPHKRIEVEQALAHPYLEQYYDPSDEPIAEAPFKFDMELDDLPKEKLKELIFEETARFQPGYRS

Molecule CS(=O)(=O)Nc1ccccc1Nc1nc(Nc2cccc(OCCN)c2)ncc1Cl [CZC31326, N-(2-(2-(3-(2-aminoethoxy)phenylamino)-5-chloropyrimidin-4-ylamino)phenyl)methanesulfonamide] has an inhibition at 10 µM (CaMKK2) of 98.1%, an inhibition at 10 µM (AAK1) of 97.8% and an inhibition at 10 µM (Erk2) of 75.8%. For the same molecule, the inhibition at 10 µM (MAP3K4) was 97.2%, the inhibition at 10 µM (SLK) was 97.5% and the inhibition at 10 µM (IRE1) was 95.1%. It also gave an inhibition at 10 µM (MLK4) of 95%, an inhibition at 10 µM (AurB) of 95% and an inhibition at 10 µM (NEK9) of 93%. It also gave an inhibition at 10 µM (PLK4) of 91.7%.
